Measured values taken from patent publication EP4810494A1, “HPK1 DEGRADATION AGENT AND USE THEREOF IN FIELD OF MEDICINE” (Haisco Pharmaceutical Group Co., Ltd., priority 2023, dated 2025).
Structures can show the parent of a compound that is named as a salt.

How the values were obtained:
HPK1 kinase = target: T1, HPK1 kinase (Homo sapiens, UniProt Q92918); experiment: HPK1 kinase assay (Km concentration ATP); type: biochemical; details: for IC50: ATP at Km concentration (working concentration: 9 µM); for inhibitory activity against HPK1 kinase (in words): Km concentration ATP, conclusion
T1 construct: purchased Carna 07-410
T1 sequence (Q92918 1-346 limits assumed): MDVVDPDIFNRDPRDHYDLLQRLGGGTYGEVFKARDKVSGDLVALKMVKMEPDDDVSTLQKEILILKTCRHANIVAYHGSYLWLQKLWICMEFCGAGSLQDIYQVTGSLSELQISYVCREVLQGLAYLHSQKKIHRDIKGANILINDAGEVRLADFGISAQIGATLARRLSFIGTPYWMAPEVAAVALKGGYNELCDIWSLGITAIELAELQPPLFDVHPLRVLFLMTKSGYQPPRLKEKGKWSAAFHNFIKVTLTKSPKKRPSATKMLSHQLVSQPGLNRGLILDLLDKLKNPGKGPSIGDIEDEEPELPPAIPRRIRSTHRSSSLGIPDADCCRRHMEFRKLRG
Procedure: Test example 3: HPK1 kinase assay (Km concentration ATP)
The kinase HPK1 (Carna, Cat.No 07-410) was prepared into 2× kinase solution using 1× kinase buffer. The substrate Fluorescein-PKC (Invitrogen, Cat. No. PV3506) and ATP (working concentration: 9 µM) (Sigma, Cat. No. 2383-5G) were prepared into 2× substrate solution using 1×kinase buffer. The detection reagent was diluted to 2-fold the final concentration using an antibody diluent. 100 nL of compounds at different concentrations and 5 µL of kinase solution were added to each well of a 384-well plate, and the mixture was incubated at room temperature for 10 minutes. After the incubation was completed, 5 µL of substrate solution was added to each well, and the resulting mixture was reacted at room temperature for 90 minutes. After the reaction was completed, 10 µL of detection reagent was added to each well to terminate the reaction, and the mixture was incubated at room temperature for 60 minutes. Fluorescence readings were detected using an Envision instrument with excitation at 320 nm and emission at 520 nm and 495 nm. IC50 value was calculated using XLFit excel add-in version 5.4.0.8 software. The calculation formula of the inhibition rate was shown in formula 3-1, where max is the Ratio of the DMSO control, min is the Ratio of the negative control without enzyme, and sample is the Ratio of the compound. Ratio = RFU520nm /RFU495nm [formula] Inhibition% = (max−sample)/(max−min) × 100% [formula] Table 3-1 Inhibitory activity of test compounds against HPK1 kinase

HPK1 protein = target: T2, HPK1 protein (Homo sapiens, UniProt Q92918); experiment: Detection of HPK1 protein expression level in Jurkat cells (24 h); type: cell-based; details: 24 hours incubation
T2 construct: host or cells: Jurkat cells
T2 sequence (Q92918 whole entry): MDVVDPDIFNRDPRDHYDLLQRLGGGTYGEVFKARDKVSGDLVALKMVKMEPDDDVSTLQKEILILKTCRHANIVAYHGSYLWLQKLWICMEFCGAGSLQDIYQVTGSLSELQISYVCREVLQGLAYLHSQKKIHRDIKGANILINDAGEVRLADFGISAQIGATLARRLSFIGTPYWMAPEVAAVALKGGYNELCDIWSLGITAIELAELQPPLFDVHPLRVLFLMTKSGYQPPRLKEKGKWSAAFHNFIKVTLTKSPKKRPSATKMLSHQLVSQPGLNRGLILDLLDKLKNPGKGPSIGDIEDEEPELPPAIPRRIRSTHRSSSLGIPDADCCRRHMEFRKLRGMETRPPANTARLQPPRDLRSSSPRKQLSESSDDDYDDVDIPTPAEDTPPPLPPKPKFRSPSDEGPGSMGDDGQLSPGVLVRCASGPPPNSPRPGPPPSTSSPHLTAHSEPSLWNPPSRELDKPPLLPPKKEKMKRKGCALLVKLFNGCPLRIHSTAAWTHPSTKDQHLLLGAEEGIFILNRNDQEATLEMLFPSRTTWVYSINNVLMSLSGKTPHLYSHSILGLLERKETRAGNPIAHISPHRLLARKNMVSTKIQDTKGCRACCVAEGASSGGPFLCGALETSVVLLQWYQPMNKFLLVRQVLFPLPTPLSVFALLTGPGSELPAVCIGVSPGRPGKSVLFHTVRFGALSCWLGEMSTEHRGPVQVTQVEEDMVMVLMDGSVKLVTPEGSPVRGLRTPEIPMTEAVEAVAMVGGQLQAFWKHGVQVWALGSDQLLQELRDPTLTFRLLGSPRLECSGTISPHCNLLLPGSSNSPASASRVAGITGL
In short: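 Jurkat cells at 5 × 10^5 cells/well were exposed to compounds for 24 h at 37 °C, with vehicle medium containing 0.2% DMSO as control. HPK1 in lysates (0.2 mg/mL) was measured by automated quantitative immunoassay and normalized to β-actin. Degradation was expressed relative to vehicle, and DC50 came from four-parameter fits.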

[1] = Pharmacokinetic test in mice; type: in vivo, ICR mice; details: mouse, plasma, po, i. g., 10 mg/kg
In short: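 Male ICR mice (20-35 g), fasted overnight and fed 4 h post-dose, received a single intravenous or intragastric dose. Orbital blood into EDTA-K2 tubes at 0–24 h; plasma quantified by LC-MS/MS to derive PK parameters and bioavailability.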

[2] = tested on: IL-2 secretion by T cells; experiment: IL-2 detection assay in cells (ELISA, pan-T cells isolated from PBMCs); type: cell-based; details: IL-2, CD3 antibody-coated plate, 24 hours
Procedure: 9. IL-2 detection assay in cells
Activating effect of compounds on IL-2 secretion by T cells was evaluated using the ELISA method. Frozen PBMCs were thawed, and pan-T cells were isolated and purified using a T cell sorting kit (Stemcell, 17951). The cells were resuspended in 1640 complete medium and incubated in a 37°C&5%CO2 incubator overnight. A 96-well plate coated with an anti-human CD3 antibody (Thermo, 16-0037-38) at a final concentration of 5 µg/mL was incubated at 37°C for 2 h. The overnight-cultured cells were collected by centrifugation, the supernatant was discarded, and the cells were resuspended in 1640 complete medium, and seeded in the CD3 antibody-coated 96-well plate at a density of 10^5cells/well. The compounds at different concentrations were added, and the mixture was incubated in a 37°C&5%CO2 incubator for 24 hours. After the incubation was completed, the resulting mixture was centrifuged at 1000 rpm for 1 minute to collect the supernatant, and IL-2 was detected according to the ELISA instructions. DMSO without compounds was used as the control group to calculate the activation rate of the compounds, and prism was used to fit the activation curve. Maximum activation fold = maximum activation rate/control group. Table 9-1 Results of IL-2 activation by test compounds

[3] = Pharmacokinetic test in rats; type: in vivo, SD rats; details: rat, plasma
Procedure: Test example 7: Pharmacokinetic test in rats
Experimental animals: Male SD rats, 180-200 g, purchased from Chengdu Dossy Experimental Animals Co., Ltd. with the laboratory animal production license number of SCXK (CHUAN) 2020-030.
Experimental design: on the day of the experiment, the SD rats were randomly grouped according to their body weights. The animals were fasted but with water available overnight before the administration, and fed 4 h after the administration.
Vehicle for intragastric administration: 5% Solutol+5% TPGS+30% PEG400+60% (20% SBE-β-CD)
Blood was taken from the orbits of the […] at specified time points, and placed in an EDTAK2 centrifuge tube. Centrifugation was performed at 5000 rpm for 10 min, and the plasma was collected.
Blood sampling time points for the intravenous administration group were: 0, 5 min, 15 min, 30 min, 1 h, 2 h, 4 h, 6 h, 8 h and 24 h; blood sampling time points for the intragastric administration group were: 0, 5 min, 15 min, 30 min, 1 h, 2 h, 4 h, 6 h, 8 h and 24 h. Before analysis and detection, all the samples were stored at - 60°C or lower. The samples were analysed quantitatively by LC-MS/MS. Table 7-1 PK data of test compound drug in rats

O=C1CCN(c2cc3c(cc2F)N2CCN(CC4CCN(c5ccc(Nc6ccc(-c7cnc8cc(F)ccn78)c7c6C(=O)NC7)nc5)CC4)C[C@@H]2CC3)C(=O)N1 [Compound 5]
IC50 (HPK1 kinase): < 10 nM | inhibitory activity against HPK1 kinase (in words) (HPK1 kinase): good inhibitory activity | DC50 (HPK1 protein): < 20 nM | AUC [1]: 20000 ng·h/mL | Cmax [1]: 1380 ng/mL | half-life [1]: 6.45 h

O=C1CCN(c2ccc(N3CCN(CC4CCN(c5ccc(Nc6ccc(-c7cnc8cc(F)ccn78)c7c6C(=O)NC7)nc5)CC4)CC3)cc2F)C(=O)N1 [Trifluoroacetic acid salt of compound 2]
IC50 (HPK1 kinase): < 10 nM | inhibitory activity against HPK1 kinase (in words) (HPK1 kinase): good inhibitory activity | DC50 (HPK1 protein): < 20 nM | AUC [1]: 16800 ng·h/mL | Cmax [1]: 1280 ng/mL | half-life [1]: 5.79 h

O=C1CCC(c2cc3c(cc2F)N2CCN(CC4CCN(c5ccc(Nc6ccc(-c7cnc8cc(F)ccn78)c7c6C(=O)NC7)nc5)CC4)C[C@@H]2CC3)C(=O)N1 (stereo partly shown) [Trifluoroacetic acid salt of compound 4]
IC50 (HPK1 kinase): < 10 nM | inhibitory activity against HPK1 kinase (in words) (HPK1 kinase): good inhibitory activity | DC50 (HPK1 protein): < 20 nM | AUC [1]: 15200 ng·h/mL | Cmax [1]: 1140 ng/mL | half-life [1]: 7.27 h

O=C1CCN(c2cc3c(cc2F)N2CCN(CC4CCN(c5ccc(Nc6ccc(-c7cnc8cc(F)ccn78)c7c6C(=O)NC7)nc5)CC4)C[C@H]2CC3)C(=O)N1 [Trifluoroacetic acid salt of compound 6]
IC50 (HPK1 kinase): < 10 nM | inhibitory activity against HPK1 kinase (in words) (HPK1 kinase): good inhibitory activity | DC50 (HPK1 protein): < 20 nM | Activation fold at 100 nM concentration ([2]; 100 nM): >10 | Maximum activation fold ([2]; maximum activation rate/control group): >10 | clearance ([3]; IV, 2.5 mg/kg): 9.78 mL/min/kg | half-life ([3]; IV, 2.5 mg/kg): 6.58 h | AUC ([3]; po, i. g., 10 mg/kg): 8360 ng·h/mL | Cmax ([3]; po, i. g., 10 mg/kg): 721 ng/mL | half-life ([3]; po, i. g., 10 mg/kg): 6.4 h | AUC [1]: 20800 ng·h/mL | Cmax [1]: 1520 ng/mL | half-life [1]: 5.35 h
